Assay results published in PubChem BioAssay (NCI).
Where “and” joins values, the source holds several entries; their conditions need not be identical. Equal values may be shown once.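 Protocol summary: plate cells (96-well), add compound at 5 concentrations, incubate 48 h, interpolate endpoints linearly. GI50 marks 50% less growth. TGI denotes the concentration required for complete inhibition of growth.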

How the values were obtained:
Assay in all cases: growth of human tumour cells (NCI), 48 h
KM12 colon = system: KM12 colon
MOLT-4 leukemia = system: MOLT-4 leukemia
SNB-75 CNS = system: SNB-75 CNS
OVCAR-4 ovarian = system: OVCAR-4 ovarian
SF-295 CNS = system: SF-295 CNS
UACC-257 melanoma = system: UACC-257 melanoma
COLO 205 colon = system: COLO 205 colon
UACC-62 melanoma = system: UACC-62 melanoma
OVCAR-5 ovarian = system: OVCAR-5 ovarian
CAKI-1 renal = system: CAKI-1 renal

Row | SMILES | TGI (KM12 colon) | TGI (MOLT-4 leukemia) [µM] | TGI (SNB-75 CNS) [µM] | TGI (OVCAR-4 ovarian) | TGI (SF-295 CNS) [µM] | TGI (UACC-257 melanoma) | TGI (COLO 205 colon) | TGI (UACC-62 melanoma) | TGI (OVCAR-5 ovarian) [µM] | GI50 (KM12 colon) | GI50 (CAKI-1 renal) [µM] | TGI (CAKI-1 renal) [µM] | GI50 (SNB-75 CNS) [µM] | GI50 (OVCAR-4 ovarian) [µM] | GI50 (SF-295 CNS) [µM] | GI50 (COLO 205 colon) [µM] | GI50 (UACC-62 melanoma) [µM] | GI50 (OVCAR-5 ovarian) | GI50 (UACC-257 melanoma) | GI50 (MOLT-4 leukemia) [µM]
1 | OC1=CN=C(C2CC2)Oc2ccccc21 | > 100 µM | > 100 | > 100 | > 100 µM | > 100 | > 100 µM | > 100 µM | > 100 µM |  |  |  |  |  |  |  |  |  |  |  | 
2 | CC(C)(C)C1CCP(=O)(c2ccccc2)CC1 (stereo not drawn) | > 100 µM | > 100 | > 100 | > 100 µM | > 100 | > 100 µM | > 100 µM | > 100 µM | > 100 |  |  |  |  |  |  |  |  |  |  | 
3 | CC(N)CN.CC(N)CN.[Cl-].[O]=[Os+2]=[O] (stereo not drawn) | > 100 µM |  | > 100 | > 100 µM | > 100 |  | > 100 µM | > 100 µM | > 100 | > 100 µM | > 100 | > 100 | > 100 | > 100 | > 100 | 70.2 | > 100 | > 100 µM |  | 
4 | COC(=O)[C@H]1CC(=O)C=C2CCCC21 (stereo partly drawn) | > 100 µM | > 100 | > 100 | > 100 µM | > 100 | > 100 µM | > 100 µM | > 100 µM |  |  |  | > 100 |  |  |  |  |  |  |  | 
5 | CC1=C(C(=O)Nc2cccc(C(F)(F)F)c2)C(c2ccccc2F)C(C(=O)Nc2cccc(C(F)(F)F)c2)=C(C)N1 | 14.8 µM | 8.41 | 79.6 | 14 µM | 20.3 | 22.1 µM | 20.5 µM |  | 24.5 |  |  | 25 |  |  |  |  |  |  |  | 
6 | CC(=O)Nc1cc(C(c2ccccc2)c2ccccc2)cc(C(c2ccccc2)c2ccccc2)c1C | > 100 µM |  | > 100 | > 100 µM | 7.49 | > 100 µM | > 100 µM | > 100 µM | > 100 | 6.19 µM | > 100 | > 100 | 21.4 | 21.7 | 2.64 | 7.36 | 5.86 | > 100 µM | 8.72 µM | 
7 | Cc1cc(C(=O)N2CCN(C)CC2)c2c(=O)n(-c3ccccc3)c(=O)n(CC(O)CN3CCN(c4ncccn4)CC3)c2n1 (stereo not drawn) | > 100 µM | > 100 | > 100 | > 100 µM | > 100 |  | > 100 µM | > 100 µM | > 100 | > 100 µM | > 100 | > 100 | > 100 | > 100 | > 100 | > 100 | > 100 | > 100 µM |  | > 100
8 | COc1ccc(C2c3cc4c(c(OC)c3CC3OCC(=O)C32)OCO4)cc1OC (stereo not drawn) | 0.221 µM and 1.01 µM |  |  | > 100 µM | < 0.01 |  | 0.074 µM and 0.0135 µM | > 100 µM | > 100 | < 0.01 µM | < 0.01 | 11.3 |  | 15.7 | < 0.01 | < 0.01 | < 0.01 | > 100 µM |  | 
9 | O=C(O)CC1C(=O)OC2C3COC(=O)c4cc(O)c(O)c(O)c4-c4c(cc(O)c(O)c4O)C(=O)OC2C(OC(=O)c2cc(O)c(O)c4c2C1C(O)C(=O)O4)C(OC(=O)c1cc(O)c(O)c(O)c1)O3 (stereo not drawn) | 42.6 µM | 95 | 41.5 | > 100 µM | > 100 | > 100 µM | > 100 µM |  | > 100 |  |  | 42.9 |  |  |  |  |  |  |  | 
10 | CC1(C)C(=O)CCC(=O)C(C)(C)C2=CC=C(O2)C(C)(C)C(=O)CCC(=O)C(C)(C)C2=CC=C1O2 | > 100 µM | > 100 |  | > 100 µM | > 100 | > 100 µM | > 100 µM |  | > 100 |  |  | > 100 |  |  |  |  |  |  |  | 
11 | CS(=O)/C(C#N)=C\C=C\c1cccc(Cl)c1 (stereo not drawn) | 4 µM | 16.4 | 37.4 | 21.1 µM | 10.7 | 12.2 µM | 4.44 µM | 3.54 µM |  | 1.42 µM | 2.06 | 13.4 | 7.11 | 3.63 | 3.05 | 2.25 | 1.18 |  | 2.41 µM | 2.54
12 | Cc1cn(C2CC(N=[N+]=[N-])C(CO)O2)c(=O)[nH]c1=O (stereo not drawn) | > 1000 µM | > 1000 |  | > 1000 µM |  | > 1000 µM | > 1000 µM | > 1000 µM | > 1000 | 472 µM | 479 | > 1000 |  | > 1000 |  | 433 |  | > 1000 µM | > 1000 µM | > 1000
13 | O=[N+]([O-])c1ccc(N/N=C/c2ccccc2O)nc1 | > 100 µM |  | > 100 | > 100 µM | > 100 | 25 µM | > 100 µM | 11.6 µM | > 100 | 1.19 µM | 0.738 | 8.37 | 10.6 | 0.408 | 2.92 | 0.544 | 2.61 | 7.33 µM | 3.13 µM | 
14 | CCCCCCCCCCCCNC(=O)[C@H]1CSC(c2cc(Br)cs2)N1 (stereo partly drawn) | 2.37 µM | 1.76 | 1.56 | 1.95 µM | 5.01 | 3 µM | 16 µM |  | 6.49 | 1.05 µM | 0.971 | 2.04 | 0.851 | 0.917 | 1.42 | 8.16 |  | 1.94 µM | 1.24 µM | 0.774
15 | O=C1/C(=C\c2ccc([N+](=O)[O-])cc2)CS(=O)(=O)C/C1=C/c1ccc([N+](=O)[O-])cc1 | 1.46 µM |  | 53.2 | 0.612 µM and 1.37 µM | 6.42 | 5.33 µM | 0.983 µM and 0.645 µM | 0.519 µM and 4.12 µM |  | 0.25 µM | 0.121 |  |  | 0.207 | 0.563 | 0.252 | 1.84 | 0.126 µM | 0.931 µM | 
16 | CC[C@@]1(O)C(=O)OCc2c1cc1n(c2=O)Cc2cc3c(Cl)c4c(cc3nc2-1)OCO4 | > 100 µM |  | > 100 |  |  | 3.64 µM and 1.92 µM | > 100 µM | 0.337 µM and 0.544 µM | 1.69 | 0.162 µM and 0.108 µM | < 0.001 | > 100 | 0.00288 |  | < 0.001 | 1.05 | < 0.001 | 0.985 µM and 0.193 µM | 0.156 µM and 0.312 µM | < 0.001
